# How the values were obtained:
# [1] = target: T1, P-gp (Homo sapiens, UniProt P08183); assay: Efflux ratio by P-gp: rhodamine 123 transport (AtoB/BtoA) across human cholangiocyte-like cell-containing membrane; assay type: in vitro ADME; conditions: rhodamine 123 10 μM
# T1 construct: the human cholangiocyte-like cells express P-glycoprotein (P-gp); endogenous in cells; host or cells: human cholangiocyte-like cells derived from human bile duct organoids (from human primary hepatocytes), grown as a 2D membrane on a permeable insert
# Description: FIG. 4A and FIG. 4B are graphs showing the measurement results of the transport amount (AtoB) and the transport amount (BtoA). […] In addition, as shown in FIG. 4A and FIG. 4B, approximation curves were each created based on the graphs of the transport amount (AtoB) and the transport amount (BtoA), and the gradient (permeation rate) was calculated. Subsequently, the efflux ratio (Efflux Ratio (ER)) was calculated based on Formula (2).
# Efflux ratio=(Permeation rate of BtoA)/(permeation rate of AtoB) (2)
# FIG. 6A to FIG. 6D are graphs showing the measurement results of the transport amount (AtoB) and the transport amount (BtoA). […] Each of FIG. 6A, FIG. 6B, FIG. 6C, and FIG. 6D presents the results of using a culture medium including Matrigel (registered trademark) at a concentration of 0, 0.1, 0.5, or 2 v/v %. In addition, as shown in FIG. 6A to FIG. 6D, approximation curves were each created based on the graphs of the transport amount (AtoB) and the transport amount (BtoA), and the gradient (permeation rate) was calculated. Subsequently, the efflux ratio was calculated based on the above-described Formula (2).
# FIG. 7A to FIG. 7C are graphs showing the measurement results of the transport amount (AtoB) and the transport amount (BtoA). Each of FIG. 7A, FIG. 7B, and FIG. 7C presents the results of using a container coated with Matrigel (registered trademark) at a concentration of 2, 5, or 10 v/v %. In addition, as shown in FIG. 7A to FIG. 7C, approximation curves were each created based on the graphs of the transport amount (AtoB) and the transport amount (BtoA), and the gradient (permeation rate) was calculated. Subsequently, the efflux ratio was calculated based on the above-described Formula (2).
# [2] = target: T2, BCRP (Homo sapiens, UniProt Q9UNQ0); assay: Efflux ratio of Hoechst 33342 (BCRP substrate) in biomimetic system; assay type: in vitro ADME; conditions: Hoechst 33342 as substrate; system as Manufacturing Example 1, 15 culture days; average of four measurements
# T2 construct: the human cholangiocyte-like cells further express at least one or more transporters selected from the group consisting of MRP2, BSEP, and BCRP; endogenous in cells; host or cells: human cholangiocyte-like cells (bile duct organoid derived) on a permeable insert
# T2 sequence (Q9UNQ0 1-655): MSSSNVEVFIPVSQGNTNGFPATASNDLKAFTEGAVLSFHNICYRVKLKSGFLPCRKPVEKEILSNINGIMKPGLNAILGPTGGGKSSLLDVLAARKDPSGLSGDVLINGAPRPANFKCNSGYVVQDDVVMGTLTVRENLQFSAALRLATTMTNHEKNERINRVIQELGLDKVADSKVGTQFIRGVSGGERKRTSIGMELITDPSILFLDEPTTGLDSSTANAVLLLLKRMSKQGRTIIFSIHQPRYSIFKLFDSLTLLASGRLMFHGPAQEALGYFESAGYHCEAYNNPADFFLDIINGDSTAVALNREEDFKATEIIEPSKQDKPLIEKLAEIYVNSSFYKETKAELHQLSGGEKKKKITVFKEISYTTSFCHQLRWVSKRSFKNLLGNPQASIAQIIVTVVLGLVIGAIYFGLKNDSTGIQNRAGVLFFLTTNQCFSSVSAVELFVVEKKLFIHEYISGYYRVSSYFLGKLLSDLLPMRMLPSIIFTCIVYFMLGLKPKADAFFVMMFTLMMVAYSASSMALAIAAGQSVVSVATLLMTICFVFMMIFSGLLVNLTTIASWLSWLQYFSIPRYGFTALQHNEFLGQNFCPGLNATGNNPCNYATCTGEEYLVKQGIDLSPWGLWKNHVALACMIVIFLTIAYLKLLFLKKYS
# Description: The efflux ratio of Hoechst 33342 (CAS number: 23491-52-3), which is a substrate for BCRP, was measured by using the biomimetic system.
# Human cholangiocyte-like cells were manufactured by a method similar to that used in Experimental Example 9. In addition, a biomimetic system was manufactured in the same manner as in Manufacturing Example 1 of Experimental Example 2, except that the number of culture days was set to 15 days. The TEER of the manufactured biomimetic system was measured by the same method as that used in Experimental Example 2, and the value was 284.83 Ω·cm^2.
# The transport amounts of Hoechst 33342 were measured in the same manner as in Experimental Example 3, except that Hoechst 33342 was used in place of rhodamine 123 as a substrate. Regarding Hoechst 33342, a solution obtained by dissolving the substance in deionized water to a concentration of 1% by mass was used.
# FIG. 12A is a graph showing the results of measuring the transport amount (BtoA) four times, and FIG. 12B is a graph showing the results of measuring the transport amount (AtoB) four times. The axis of abscissa in the graph represents the time (minutes), and the axis of ordinate represents the amount (pmoL) of transported Hoechst 33342. The efflux ratio calculated in the same manner as in Experimental Example 3 from the average value of the results of the four measurements was about 23.0.
# T1 sequence (P08183 whole entry): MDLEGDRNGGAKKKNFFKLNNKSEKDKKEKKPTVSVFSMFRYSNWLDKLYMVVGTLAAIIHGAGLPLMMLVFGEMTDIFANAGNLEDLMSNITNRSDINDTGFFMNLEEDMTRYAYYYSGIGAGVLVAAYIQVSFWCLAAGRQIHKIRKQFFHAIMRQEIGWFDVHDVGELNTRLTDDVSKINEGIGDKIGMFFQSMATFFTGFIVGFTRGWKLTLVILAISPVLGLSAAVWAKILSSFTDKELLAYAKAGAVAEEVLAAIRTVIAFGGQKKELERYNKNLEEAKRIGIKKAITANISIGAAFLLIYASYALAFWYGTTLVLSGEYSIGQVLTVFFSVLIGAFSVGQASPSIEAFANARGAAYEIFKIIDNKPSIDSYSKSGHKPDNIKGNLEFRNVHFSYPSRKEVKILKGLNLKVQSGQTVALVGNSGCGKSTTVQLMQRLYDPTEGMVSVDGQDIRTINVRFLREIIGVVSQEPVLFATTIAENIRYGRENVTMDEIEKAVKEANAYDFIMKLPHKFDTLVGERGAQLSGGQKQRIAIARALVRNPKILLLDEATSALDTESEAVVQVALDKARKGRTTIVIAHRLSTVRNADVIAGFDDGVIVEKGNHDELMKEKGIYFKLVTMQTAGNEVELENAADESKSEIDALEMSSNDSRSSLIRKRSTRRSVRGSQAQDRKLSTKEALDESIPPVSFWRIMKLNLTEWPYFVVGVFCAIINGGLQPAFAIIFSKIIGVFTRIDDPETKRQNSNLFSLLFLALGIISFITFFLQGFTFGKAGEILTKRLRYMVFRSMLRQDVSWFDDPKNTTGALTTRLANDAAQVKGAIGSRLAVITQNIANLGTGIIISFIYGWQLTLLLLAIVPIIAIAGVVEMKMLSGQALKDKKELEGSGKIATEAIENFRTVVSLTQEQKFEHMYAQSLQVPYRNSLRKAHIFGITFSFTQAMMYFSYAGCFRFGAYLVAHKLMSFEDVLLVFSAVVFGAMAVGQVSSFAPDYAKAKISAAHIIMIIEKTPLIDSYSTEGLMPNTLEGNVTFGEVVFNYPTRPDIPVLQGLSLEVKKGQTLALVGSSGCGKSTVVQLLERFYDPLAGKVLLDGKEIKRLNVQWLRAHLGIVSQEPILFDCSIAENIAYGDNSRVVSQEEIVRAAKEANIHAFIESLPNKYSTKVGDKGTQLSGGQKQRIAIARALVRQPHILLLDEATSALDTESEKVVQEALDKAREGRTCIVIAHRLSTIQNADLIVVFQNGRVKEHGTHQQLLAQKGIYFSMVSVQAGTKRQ
"Efflux ratio ([1]; Production Example 3, Matrigel 0 v/v % in culture medium, Day 17)","Efflux ratio ([1]; Production Example 4, Matrigel 0.1 v/v % in culture medium, Day 17)","Efflux ratio ([1]; Production Example 5, Matrigel 0.5 v/v % in culture medium, Day 17)","Efflux ratio ([1]; Production Example 7, Matrigel 2 v/v % in culture medium, Day 17)","Efflux ratio ([1]; Production Example 9, insert coated with 2 v/v % Matrigel, 14 culture days)","Efflux ratio ([1]; Production Example 10, insert coated with 5 v/v % Matrigel, 14 culture days)","Efflux ratio ([1]; Production Example 11, insert coated with 10 v/v % Matrigel, 14 culture days)","Efflux ratio ([1]; biomimetic system of Manufacturing Example 2, Day 17 from start of culture)","Efflux ratio ([1]; biomimetic system of Manufacturing Example 2, Day 23 from start of culture)",Compound,Efflux ratio [2]
1.7,1.7,2.2,1.3,4.93,4.70,3.89,7.3,11.6,rhodamine 123,–
–,–,–,–,–,–,–,–,–,CCOc1ccc(-c2nc3ccc(-c4nc5ccc(N6CCN(C)CC6)cc5[nH]4)cc3[nH]2)cc1 [Hoechst 33342],about 23.0
